Test results published in a melting point compilation (Tetko et al.; mined from patent text by program, amines drawn as free bases though some values may be those of a salt).

Row | Compound | melting point
1 | O=C(Nc1cccc(CC(=O)OCc2ccccc2)c1)NC1C(=O)N(CC(=O)N2CCCC2)c2ccccc2N(c2ccccc2F)C1=O (stereo not given) | 104 to 106 °C
2 | O=C(Nc1ccc2cc(CN3CCCC3)ccc2c1)c1ccc(-c2ccc(Cl)cc2)nc1 | 270 to 274 °C
3 | CC(=O)c1ccc(Br)c(S(=O)(=O)Cl)c1 | 107 °C
4 | CC(C)(C)c1ccc(Cn2cc(C(=O)C(=O)O)c3cc(-c4ccc(C(C)(C)C)cc4)ccc32)cc1 | 111 to 112 °C
5 | O=C(NCc1ccccc1)C1=C(C(=O)Nc2ccc(Cl)cc2F)CCCC1 | 121 to 123 °C
6 | Cn1nc(Cc2ccc([N+](=O)[O-])cc2)oc1=O | 115 to 116 °C
7 | CS(=O)(=O)Nc1ccc2c(c1)CCC1(CCC(N3CCc4ccccc4C3)CC1)O2 (stereo not given) | 183 to 185 °C
8 | C=CCOC(=O)c1c(C)nc2c(cnn2C/C=C\CC)c1N | 78 to 81 °C
9 | Cc1noc(C2CN=CN(C(c3ccccc3)(c3ccccc3)c3ccccc3)C2)n1 (stereo not given) | 72 to 74 °C
10 | Cc1cc(NC(=O)c2cc3cc(F)ccc3n2Cc2ccncc2)cnc1N(C)C | 282 to 283 °C
11 | CCOC(=O)C(C)(C(=O)OCC)C1CCCC(=O)C1 (stereo not given) | 129 to 130 °C
12 | CC(=O)Oc1n[nH]c(=O)c2nc3cc(Cl)ccc3c(O)c12 | > 300 °C
13 | O=C(OC1CCCCCCC1=O)c1ccccc1 (stereo not given) | 92 to 93 °C
14 | COc1cc2c(Nc3ccc(Sc4nccn4C)c(Cl)c3)c(C#N)cnc2cc1N1CCC(N2CCCCC2)CC1 | 221 to 223 °C
15 | Cc1[nH]c2cc(C(=O)c3ccccc3)ccc2c1/C=C/C(=O)c1ccncc1 | 267 to 270 °C
16 | C/C=C/C=C(\C[C@H](N)C(=O)O)C(=O)O | 190 °C
17 | CCCCNc1cc(C#N)cc(S(N)(=O)=O)c1Oc1ccccc1 | 217 to 218 °C
18 | Nc1cc(O)c(C(=O)NCC2CN(Cc3ccccc3)CCO2)cc1Cl (stereo not given) | 153 to 155 °C
19 | COc1ccc2c(c1)S(=O)(=O)N=CN2CCF | 123 to 128 °C
20 | CC(=O)Oc1cc(C(C)(C)C)ccc1C1(OC(C)=O)C(=O)c2ccccc2C1=O | 119 to 120 °C
21 | Cc1nc(N2CCCC(Cc3cc(F)ccc3F)C2=O)sc1C(=O)NCc1ccccc1 (stereo not given) | 144 to 145 °C
22 | CC(=O)N1N=C(c2ccc([N+](=O)[O-])cc2)c2ccc(Cl)cc2CC1C (stereo not given) | 174 to 175 °C
23 | O=C(CCCl)c1cc2c3c(c1)CCN3C(=O)CC2 | 154 to 155 °C
24 | CCCCCCCC(=O)Oc1ccc(-c2nc(-c3ccc(N(C)C)cc3)c(C)[nH]2)cc1OC | 126 to 129 °C
25 | CN(C)C(=O)Sc1ccc(C(=O)c2ccccc2C#N)cc1 | 112 °C

Row | Compound | melting point
26 | Cc1cc(OC(F)(F)F)ccc1O | 72 °C
27 | COC(=O)c1cc2c3ccccc3n(C(C)=O)c2s1 | 179 to 181 °C
28 | CC1NC(=O)CC2(C)CC1c1ccccc1O2 (stereo not given) | 164 °C
29 | Cc1cccc2c(Cl)c(Cl)sc12 | 48 to 50 °C
30 | CS(=O)(=O)N1CCCC(Nc2nccc(-n3nnc4ccccc43)n2)C1 (stereo not given) | 196 to 197 °C
31 | CSc1[nH]nc(-c2ccc(Cl)cc2F)c1C | 88 to 90 °C
32 | CCOC(=O)/C(=N\OC12CCC(CC1)CC2)c1csc(N)n1 | 139 to 140 °C
33 | Cc1ncc([N+](=O)[O-])n1CCOS(C)(=O)=O | 152 to 153 °C
34 | COc1ccc(CN(C)CCc2ccc(NC(=O)c3cccc4c(=O)c5cccc(SC)c5[nH]c34)cc2)cc1OC | 190 °C
35 | COc1cc(CNC(=O)c2nc3cnn(CCCc4ccccc4)c3c(=O)[nH]2)ccc1F | 155 to 157 °C
36 | CC(NC(Nc1cccnc1)=C(C#N)S(=O)(=O)c1ccc(Cl)cc1)C(C)(C)C (stereo not given) | 172 to 174 °C
37 | CCN(CC)CC(C)COc1ccc2nc(-c3cccc(OC)c3)n(CC(=O)NC(C)C)c(=O)c2c1 (stereo not given) | 161 to 163 °C
38 | CNc1nc2c(Cc3cccnc3)c(C)c(O)c(C)c2s1 | 236 to 238 °C
39 | COC(=O)c1ccc(N2CCNCC2)nc1 | 91 to 92 °C
40 | CS(=O)(=O)Nc1cc2occ(C=Cc3ccccc3)c(=O)c2cc1Oc1ccccc1 | 174 to 175 °C
41 | Cc1ccc(-c2cn3cc([N+](=O)[O-])ccc3n2)cc1 | 205 to 206 °C
42 | CCCNC(=O)C(C)Cc1ccc2cccc(Cc3ccc(C(=O)OC)cc3OC)c2c1 (stereo not given) | 130 °C
43 | N=C(N)Nc1nc2ccc(OCc3ccccc3)cc2[nH]1 | 224 to 227 °C
44 | CNCc1nnc2n1-c1ccc(Cl)cc1C(c1ccccc1F)=CC2 | 170 to 171 °C
45 | O=C(O)c1cc(Cl)c(F)c(F)c1F | 123 to 124 °C
46 | CC(=O)OCCn1ccc(=O)c(OCc2ccccc2)c1C(OC(C)=O)c1ccc(F)cc1 (stereo not given) | 118 to 119 °C
47 | Cc1ccc(C)c(C(=O)C=Cc2ccccc2C(=O)Cl)c1 | 96 to 98 °C
48 | COCCOc1cc(N)c(S(C)(=O)=O)cc1[N+](=O)[O-] | 166 to 167 °C
49 | COc1cc(Nc2nccc(-c3ccc(NCCCN4CCOCC4)nc3)n2)cc(OC)c1OC | 165 to 166 °C
50 | CC(C)S(=O)(=O)c1cc(OCc2ccc(S(C)(=O)=O)cn2)c2[nH]nc(Nc3nccs3)c2c1 | 160 to 161 °C

Row | Compound | melting point
51 | CC(NC(=O)CNC(=O)c1c(Cl)cccc1Cl)c1ccccc1 (stereo not given) | 155 °C
52 | CS(=O)(=O)c1ccc(-c2cc3c(cc2Cc2cc(F)cc(F)c2)OCCO3)cc1 | 160 to 162 °C
53 | N#Cc1ccc2c(c1)C1(c3ccccc3-2)c2ccccc2-c2ccc(C#N)cc21 | 215 to 245 °C
54 | COc1ncc(-c2nn(C(C)c3oc4ccccc4c(=O)c3-c3cccc(F)c3)c3ncnc(N)c23)c(OC)n1 (stereo not given) | 286 to 290 °C
55 | Nc1nc(N)c(C(=O)NC2=NCCN2)nc1Cl | 236 °C
56 | CC=Cn1c(C(O)(c2ccc(Cl)cc2)c2ccc(Cl)cc2)nc(C)c1C | 127 to 128 °C
57 | O=C(NCCc1cncn1CCc1ccccc1)[C@H]1CN(Cc2ccccc2)CCN1C(=O)NC1CCCCC1 | 64.4 °C
58 | CCCCC(Nc1ccncc1)c1ccccc1 (stereo not given) | 118 °C
59 | CNC(=O)c1ccc(C=CC(=O)NCC(=O)N(C)c2ccc(Cl)c(CBr)c2Cl)cc1 | 212 to 216 °C
60 | O=c1oc2c(O)cccc2c(O)c1-c1ccccc1 | 220 °C
61 | N=C1SCCN1c1ccc([N+](=O)[O-])cc1 | 166 °C
62 | CCOC(=O)c1c(C(C)(C)O)nc(CC)n1Cc1ccc(-c2ccccc2-c2nnnn2C(c2ccccc2)(c2ccccc2)c2ccccc2)cc1 | 150 to 152 °C
63 | CCCCCCN(C(=O)C(C)C)c1sc(CC)cc1C(=O)O | 98 to 101 °C
64 | COc1cc(-c2nc3ccccc3n2Cc2ccc(C)cc2)cc(OC)c1OC | 84.5 °C
65 | CCc1cc2c(s1)SCc1cc(=O)n(-c3ccc(Cl)cc3)nc1-2 | 161 to 163 °C
66 | O=c1ccc(Br)cn1CC1(O)CCN(Cc2ccccc2)CC1 | 146 to 148 °C
67 | COc1cccc(CC(N)C(=O)O)c1OCCc1ccccc1 (racemic) | 180 to 182 °C
68 | COc1cncc(-c2ccc(OC3SCC(O)C(O)C3O)cn2)c1 (stereo not given) | 193 °C
69 | Cc1cc(SC2=C(O)CC(CCc3csc(CO)c3)(C(C)C)OC2=O)c(C(C)(C)C)cc1CO (stereo not given) | 76 to 80 °C
70 | Cc1cc(-c2cnn3c(C(F)(F)F)cc(-c4ccc(OCC(F)(F)F)c(C(F)(F)F)c4)nc23)ccn1 | 210 °C
71 | CSc1cnc2c(c1)CCC(c1ccc(Cl)c(Cl)c1)O2 (stereo not given) | 109 to 111 °C
72 | O=C(NC1CCc2ccccc21)c1ccc2cnccc2n1 (stereo not given) | 156 to 157 °C
73 | CON(C)Cc1nc2c(N)nc3ccccc3c2n1CC(C)(C)O | 220 to 222 °C
74 | Clc1cccc(Nc2nccc(Cl)n2)c1 | 112 to 114 °C
75 | O=C(/C=C/c1cccnc1)NCCc1ccccc1O | 170 to 172 °C

Row | Compound | melting point
76 | COc1ccc(Cl)cc1C(=O)NCCc1ccc(CCC(=O)O)cc1 | 118 to 120 °C
77 | Cc1nn(-c2ccccc2)c(-c2ccccc2)c1NC(N)=S | 212 to 214 °C
78 | Clc1cnn2c(-c3ccccn3)ccnc12 | 141 to 143 °C
79 | O=C(O)/C=C/C#Cc1cccc(S(=O)(=O)Nc2ccccc2)c1 | 188 to 190 °C
80 | COc1ccc(C(=O)O)c(OCc2ccccc2)c1 | 99 to 101 °C
81 | CCCNCc1cnc(-c2ncn3c2CN(C)C(=O)c2cc(F)ccc2-3)o1 | 134 to 136 °C
82 | Cc1noc(NS(=O)(=O)c2ccccc2-c2ccc(-c3ncccn3)cc2CN2CCC(C)(C)C2=O)c1C | 105 to 115 °C
83 | CC12C=CC(=O)C=C1C(SC#N)C(O)C1C2CCC2(C)C(=O)CCC12 (stereo not given) | 206 to 208 °C
84 | CCOC(=O)Cc1ccc2c(c1)CC(CC(=O)O)C2 (stereo not given) | 56 to 57 °C
85 | CCCCCCCOc1ccc(COc2ccc3c(c2)CC(CC(=O)O)C3OC)cc1 (stereo not given) | 80 to 82 °C
86 | O=[N+]([O-])c1ccccc1COc1cccc2cccnc12 | 152 °C
87 | Cc1cc(C)c(C=CC#N)c(Br)c1 | 95 to 96 °C
88 | COC(=O)NC(C)(C(=O)NS(=O)(=O)c1ccc(C)cc1)C(C)C (stereo not given) | 120 to 122 °C
89 | C=C1CC(c2ccc(Br)s2)N(C)C1=O (stereo not given) | 177 to 180 °C
90 | CN(C)C(=O)c1cccnc1S(=O)(=O)Cl | 114 to 117 °C
91 | CN1CC=C(c2c[nH]c3ccc(NC(=O)c4ccccc4)cc23)CC1 | > 250 °C
92 | CCCCCCCCCCCCCCC(CCCCCC(=O)O)CCCCCC(=O)O | 48 to 50 °C
93 | N#Cc1ncn2c1NCC=C2c1cccc(C(F)(F)F)c1 | 241 to 243 °C
94 | CO/C=C(/C(=O)OC)c1ccccc1Oc1cc(Cl)ncn1 | 94 to 95 °C
95 | CN(c1cccc2cc(C3=NCC(C)(CN4CCC5(CC4)OCCO5)S3)[nH]c12)S(=O)(=O)c1cccs1 (stereo not given) | 172 to 173 °C
96 | Nc1ncc2cc(-c3ccccc3)c(N)nc2n1 | 317 to 318 °C
97 | FC(F)(F)c1ccc(-n2ccc3cnccc32)c(Cl)c1 | 160 to 161 °C
98 | COC(=O)C(=O)O[C@H]1C[C@@H](C(=O)OC)[C@]2(C)CC[C@H]3C(=O)O[C@H](c4ccoc4)C[C@]3(C)[C@H]2C1=O | 241 to 244 °C
99 | O=C1C(Cl)=C(N2CCN(S(=O)(=O)c3ccccc3C(F)(F)F)CC2)C(=O)c2ccccc21 | 122 to 124 °C
100 | Brc1csc2cc(OCc3ccccc3)ccc12 | 68 °C
